According to the supplement of paper PMC10307832:

Columns and labels:
Experiment in all cases: relative viability (nuclei count vs DMSO), 5 days (fraction); higher = more cells survive
Elesclomol + Luminespib = compound: CN(NC(=O)CC(=O)NN(C)C(=S)c1ccccc1)C(=S)c1ccccc1 [Elesclomol] + CCNC(=O)c1noc(-c2cc(C(C)C)c(O)cc2O)c1-c1ccc(CN2CCOCC2)cc1 [Luminespib] (partner 0.01 µM)
Summary of the method: (§1)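 Lung cancer cell lines in 1536-well plates got either a single drug or a fixed anchor-drug dose together with five library-drug doses (not always all listed) in √10 steps, by pin tool, on the day after seeding. Nuclei were counted after 5 days, and relative viability is the treated-to-vehicle ratio of nuclei counts. Values are medians of duplicate plates.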

Elesclomol + Pictilisib = compound: CN(NC(=O)CC(=O)NN(C)C(=S)c1ccccc1)C(=S)c1ccccc1 [Elesclomol] + CS(=O)(=O)N1CCN(Cc2cc3nc(-c4cccc5[nH]ncc45)nc(N4CCOCC4)c3s2)CC1 [Pictilisib] (partner 1 µM)
Summary of the method: as §1

Elesclomol + Crizotinib = compound: CN(NC(=O)CC(=O)NN(C)C(=S)c1ccccc1)C(=S)c1ccccc1 [Elesclomol] + C[C@@H](Oc1cc(-c2cnn(C3CCNCC3)c2)cnc1N)c1c(Cl)ccc(F)c1Cl [Crizotinib] (partner 1 µM)
Summary of the method: as §1

Elesclomol + Linsitinib = compound: CN(NC(=O)CC(=O)NN(C)C(=S)c1ccccc1)C(=S)c1ccccc1 [Elesclomol] + C[C@]1(O)C[C@@H](c2nc(-c3ccc4ccc(-c5ccccc5)nc4c3)c3c(N)nccn32)C1 [Linsitinib] (partner 1 µM)
Summary of the method: as §1

Elesclomol + Phenformin = compound: CN(NC(=O)CC(=O)NN(C)C(=S)c1ccccc1)C(=S)c1ccccc1 [Elesclomol] + N=C(N)NC(=N)NCCc1ccccc1 [Phenformin] (partner 250 µM)
Summary of the method: as §1

| Cell Line | relative viability (Elesclomol + Luminespib; first compound 0.003162 µM) | relative viability (Elesclomol + Luminespib; first compound 0.01 µM) | relative viability (Elesclomol + Luminespib; first compound 0.03162 µM) | relative viability (Elesclomol + Luminespib; first compound 0.1 µM) | relative viability (Elesclomol + Pictilisib; first compound 0.003162 µM) | relative viability (Elesclomol + Pictilisib; first compound 0.01 µM) | relative viability (Elesclomol + Pictilisib; first compound 0.03162 µM) | relative viability (Elesclomol + Pictilisib; first compound 0.1 µM) | relative viability (Elesclomol + Crizotinib; first compound 0.003162 µM) | relative viability (Elesclomol + Crizotinib; first compound 0.01 µM) | relative viability (Elesclomol + Crizotinib; first compound 0.03162 µM) | relative viability (Elesclomol + Crizotinib; first compound 0.1 µM) | relative viability (Elesclomol + Linsitinib; first compound 0.003162 µM) | relative viability (Elesclomol + Linsitinib; first compound 0.01 µM) | relative viability (Elesclomol + Linsitinib; first compound 0.03162 µM) | relative viability (Elesclomol + Linsitinib; first compound 0.1 µM) | relative viability (Elesclomol + Phenformin; first compound 0.003162 µM) | relative viability (Elesclomol + Phenformin; first compound 0.01 µM) | relative viability (Elesclomol + Phenformin; first compound 0.03162 µM) | relative viability (Elesclomol + Phenformin; first compound 0.1 µM) |
| --- | --- | --- | --- | --- | --- | --- | --- | --- | --- | --- | --- | --- | --- | --- | --- | --- | --- | --- | --- | --- |
| SK-LU-1 | 0.206 | 0.193 | 0.158 | 0.124 | 0.55 | 0.469 | 0.319 | 0.178 | 0.904 | 0.677 | 0.362 | 0.141 | 1.11 | 0.835 | 0.405 | 0.12 | 0.643 | 0.287 | 0.305 | 0.161 |
| ABC-1 | 0.254 | 0.206 | 0.322 | 0.223 | 0.26 | 0.286 | 0.217 | 0.223 | 0.195 | 0.136 | 0.223 | 0.289 | 0.267 | 0.207 | 0.308 | 0.212 | 0.239 | 0.22 | 0.224 | 0.17 |
| COR-L 105 | 0.721 | 0.161 | 0.307 | 0.164 | 0.398 | 0.284 | 0.249 | 0.219 | 0.787 | 0.407 | 0.288 | 0.207 | 0.715 | 0.494 | 0.371 | 0.202 | 0.417 | 0.315 | 0.289 | 0.168 |
| LOU-NH91 | 0.334 | 0.339 | 0.33 | 0.28 | 0.447 | 0.511 | 0.45 | 0.424 | 0.735 | 0.706 | 0.616 | 0.57 | 0.925 | 0.856 | 0.703 | 0.542 | 0.754 | 0.571 | 0.419 | 0.439 |
| NCI-H661 | 0.845 | 0.326 | 0.282 | 0.214 | 0.356 | 0.373 | 0.214 | 0.212 | 0.991 | 0.619 | 0.361 | 0.283 | 0.55 | 0.242 | 0.169 | 0.145 | 0.272 | 0.305 | 0.25 | 0.193 |
| LU99A | 0.264 | 0.21 | 0.227 | 0.189 | 0.316 | – | 0.325 | 0.137 | 0.545 | – | 0.648 | 0.121 | 0.544 | – | 0.615 | 0.117 | 0.804 | 0.561 | 0.901 | 0.219 |
| SW 1573 | 0.154 | 0.0972 | 0.0704 | 0.0142 | 0.479 | 0.121 | 0.104 | 0.074 | 0.806 | 0.344 | 0.147 | 0.128 | 0.706 | 0.224 | 0.116 | 0.102 | 0.274 | 0.114 | 0.159 | 0.0405 |
| HOP-62 | 0.877 | 0.892 | 0.962 | 0.554 | 0.694 | 0.269 | 0.582 | 0.239 | 0.952 | 0.916 | 0.919 | 0.256 | 0.909 | 0.94 | 0.994 | 0.184 | 0.629 | 0.508 | 0.353 | 0.176 |
